Structures can show the parent of a compound that is named as a salt.

Chain of kinase domain of IRE1 alpha (His-tagged kinase dead construct KR, AA G547-L977, D688N) (O75460 547-977 D688N): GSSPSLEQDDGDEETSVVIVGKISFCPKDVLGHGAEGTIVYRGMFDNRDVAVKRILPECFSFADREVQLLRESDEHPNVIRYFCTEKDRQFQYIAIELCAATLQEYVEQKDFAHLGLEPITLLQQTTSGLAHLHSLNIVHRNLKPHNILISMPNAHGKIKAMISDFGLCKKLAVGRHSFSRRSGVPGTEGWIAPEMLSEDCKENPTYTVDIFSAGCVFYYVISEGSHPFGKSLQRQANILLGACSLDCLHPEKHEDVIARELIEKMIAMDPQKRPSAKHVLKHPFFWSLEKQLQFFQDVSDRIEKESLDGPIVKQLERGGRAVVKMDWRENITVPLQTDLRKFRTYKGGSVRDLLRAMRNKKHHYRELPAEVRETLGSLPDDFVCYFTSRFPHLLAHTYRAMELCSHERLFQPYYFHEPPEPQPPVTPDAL

The test addresses kinase domain of IRE1 alpha (His-tagged kinase dead construct KR, AA G547-L977, D688N) (Homo sapiens (Human), UniProt O75460, D688N). Briefly: IRE1α TR-FRET competition binding assay. The following applies: competition with Kinase Tracer 236, 0.1 μM; one hour at room temperature. The method, boiled down: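 Sf9-expressed kinase-dead KR construct (0.006 μM final) pre-incubated 1 h at 4° C with Eu anti-His antibody (0.002 μM) in HEPES pH 7.5/MgCl2/Brij/DTT buffer; Kinase Tracer 236 (ATP-competitive probe, 0.1 μM final) added with compound. 1 h at room temperature; tracer displacement read by TR-FRET (665/615 nm).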
As to `Cc1cc(NS(=O)(=O)Cc2c(F)cccc2F)c(F)c(F)c1Oc1ncccc1-c1ccnc(N[C@@H]2CNC[C@@H](F)C2)n1` [Compound 283, N-(2,3-Difluoro-4-((3-(2-(((3S,5S)-5-fluoropiperidin-3-yl)amino)pyrimidin-4-yl)pyridin-2-yl)oxy)-5-methylphenyl)-1-(2,6-difluorophenyl)methanesulfonamide], the IC50 (commonly the midpoint of a concentration-inhibition curve) was 0.41 nM.

`O=S(=O)(Cc1ccccc1)Nc1c(F)cc(Oc2ncccc2-c2ccnc(CC3CCCNC3)n2)c(F)c1F` (single isomer, unassigned) [Compound 199, 1-Phenyl-N-(2,3,6-trifluoro-4-((3-(2-(3-piperidylmethyl)pyrimidin-4-yl)-2-pyridyl)oxy)phenyl)methanesulfonamide] had an IC50 of 110 nM.

Turning to `CN1CCN(Cc2ccc(NC(=O)Nc3cccc(Oc4ncccc4-c4ccnc(N[C@@H]5CNC[C@@H](F)C5)n4)c3)cc2C(F)(F)F)CC1` [Compound 286, 1-(3-((3-(2-(((3S,5S)-5-Fluoropiperidin-3-yl)amino)pyrimidin-4-yl)pyridin-2-yl)oxy)phenyl)-3-(4-((4-methylpiperazin-1-yl)methyl)-3-(trifluoromethyl)phenyl)urea hydrochloride], the IC50 was 260 nM.

The compound `CC(F)C1CNCC(Nc2nccc(-c3cccnc3Oc3cc(F)c(NS(=O)(=O)Cc4ccccc4)c(F)c3F)n2)C1` (single isomer, unassigned) [Compound 342, 1-Phenyl-N-(2,3,6-trifluoro-4-((3-(2-((5-(1-fluoroethyl)piperidin-3-yl)amino)pyrimidin-4-yl)pyridin-2-yl)oxy)phenyl)methanesulfonamide hydrochloride] showed a concentration for half-maximal inhibition (IC50) of 0.16 nM.

In turn, `C[C@@]1(F)CNC[C@@H](Nc2nccc(-c3cccnc3Oc3ccc(NS(=O)(=O)Cc4ccccc4)c(F)c3F)n2)C1` [Compound 174, N-(2,3-difluoro-4-((3-(2-(((3S,5S)-5-fluoro-5-methylpiperidin-3-yl)amino)pyrimidin-4-yl)pyridin-2-yl)oxy)phenyl)-1-phenylmethanesulfonamide] had an IC50 of 3.1 nM.

Turning to `Cc1cc(NS(=O)(=O)c2ccccc2Cl)ccc1Oc1ncccc1-c1ccnc(N[C@H]2CC[C@H](N)CC2)n1` [Compound 101, N-[4-[[3-[2-[(4-aminocyclohexyl)amino]pyrimidin-4-yl]-2-pyridyl]oxy]-3-methyl-phenyl]-2-chloro-benzenesulfonamide hydrochloride], the IC50 came out at 13 nM.

Compound `O=S(=O)(Cc1ccccc1F)Nc1ccc(Oc2ncccc2-c2ccnc(N[C@H]3CCCNC3)n2)c(F)c1F` [Compound 146, (S)-N-(2,3-difluoro-4-((3-(2-(piperidin-3-ylamino)pyrimidin-4-yl)pyridin-2-yl)oxy)phenyl)-1-(2-fluorophenyl)methanesulfonamide hydrochloride] gave an IC50 of 4 nM.

Turning to `O=S(=O)(Cc1ccccc1)Nc1ccc(Oc2ncccc2-c2ccnc(NC34CNCC3C4)n2)c(F)c1F` (single isomer, unassigned) [Compound 185, N-(4-((3-(2-(3-Azabicyclo[3.1.0]hexan-5-ylamino)pyrimidin-4-yl)-2-pyridyl)oxy)-2,3-difluoro-phenyl)-1-phenyl-methanesulfonamide], the IC50 is 9.4 nM.

On to `O=S(=O)(Cc1ccccc1)Nc1c(F)cc(Oc2ncccc2-c2ccnc(NC3CNCC(C(F)F)C3)n2)c(F)c1F` (single isomer, unassigned) [Compound 303, N-(4-((3-(2-((5-(Difluoromethyl)piperidin-3-yl)amino)pyrimidin-4-yl)pyridin-2-yl)oxy)-2,3,6-trifluorophenyl)-1-phenylmethanesulfonamide], for which the IC50 was determined as 35 nM.

Turning to `O=C(Nc1ccc(Oc2ncccc2-c2ccnc(N[C@@H]3CNC[C@@H](F)C3)n2)cc1)Nc1cccc(C(F)(F)F)c1` [Compound 276, 1-(4-((3-(2-(((3S,5S)-5-Fluoropiperidin-3-yl)amino)pyrimidin-4-yl)pyridin-2-yl)oxy)phenyl)-3-(3-(trifluoromethyl)phenyl)urea], the IC50 amounted to 180 nM.

These data come from patent publication US12071425B2 (Genentech, Inc., priority 2018, dated 2024).
